Assay results from patent US11584765B2 (priority 2017, dated 2023).

System: C57BL/6 mice
Test: animal or person
Assay type: in vivo
Conditions: Mus musculus, sc, 0.5 h, s.c. administration, 30 min, 55° C. water, read-out: ED50 (mg/kg) at 30 min on C57BL/6 mice in Warm-water Tail-flick Test

Row | Structure (SMILES) | ED50 [mg/kg]
1 | CCOCC1(CCc2ccccn2)CCN(C(C)c2ccc(C)nc2)C1 (centres unmarked) [Compound 349, 5-(1-(3-(ethoxymethyl)-3-(2-(pyridin-2-yl)ethyl)pyrrolidin-1-yl)ethyl)-2-methylpyridine] | < 10
2 | CCOCC1(CCc2cccnc2)CCN(C(C)c2ccc(C)nc2)C1 (centres unmarked) [Compound 350, 5-(1-(3-(ethoxymethyl)-3-(2-(pyridin-3-yl)ethyl)pyrrolidin-1-yl)ethyl)-2-methylpyridine] | < 10
3 | CCOCC1(CCc2ncccn2)CCN(C(C)c2ccc(C)nc2)C1 (centres unmarked) [Compound 351, 2-(2-(3-(ethoxymethyl)-1-(1-(6-methylpyridin-3-yl)ethyl)pyrrolidin-3-yl)ethyl)pyrimidine] | < 10
4 | CCOC[C@]1(CCc2ccsc2)CCN(C(C)(C)c2ccc(C)nc2)C1 [Compound 352, (R)-5-(2-(3-(ethoxymethyl)-3-(2-(thiophen-3-yl)ethyl)pyrrolidin-1-yl)propan-2-yl)-2-methylpyridine] | < 10
5 | CCOC[C@@]1(CCc2cccs2)CCN(C(C)(C)c2ccc(C)nc2)C1 [Compound 353, (S)-5-(2-(3-(ethoxymethyl)-3-(2-(thiophen-2-yl)ethyl)pyrrolidin-1-yl)propan-2-yl)-2-methylpyridine] | < 10
6 | CCOC[C@@]1(CCc2csc(C)c2)CCN(C(C)(C)c2ccc(C)nc2)C1 [Compound 354, (S)-5-(2-(3-(ethoxymethyl)-3-(2-(5-methylthiophen-3-yl)ethyl)pyrrolidin-1-yl)propan-2-yl)-2-methylpyridine] | < 10
7 | CCOC[C@@]1(CCc2cc(C)cs2)CCN(C(C)(C)c2ccc(C)nc2)C1 [Compound 355, (S)-5-(2-(3-(ethoxymethyl)-3-(2-(4-methylthiophen-2-yl)ethyl)pyrrolidin-1-yl)propan-2-yl)-2-methylpyridine] | < 10
8 | CCOC[C@@]1(CCc2ccsc2)CCN(C(C)(C)c2ccc(C)nc2)C1 [Compound 356, (S)-5-(2-(3-(ethoxymethyl)-3-(2-(thiophen-3-yl)ethyl)pyrrolidin-1-yl)propan-2-yl)-2-methylpyridine] | < 10
9 | CCOCC1(CCc2cnccn2)CCN(C(C)c2ccc(C)nc2)C1.Cl (centres unmarked) [Compound 357, 2-(2-(3-(ethoxymethyl)-1-(1-(6-methylpyridin-3-yl)ethyl)pyrrolidin-3-yl)ethyl)pyrazine HCl] | < 10
10 | CCOCC1(CCc2nccn2C)CCN(C(C)c2ccc(C)nc2)C1 (centres unmarked) [Compound 358, 5-(1-(3-(ethoxymethyl)-3-(2-(1-methyl-1H-imidazol-2-yl)ethyl)pyrrolidin-1-yl)ethyl)-2-methylpyridine] | > 10
11 | CCOC[C@@]1(CCc2ccccn2)CCN(C(C)(C)c2ccc(C)nc2)C1 [Compound 359, (S)-5-(2-(3-(ethoxymethyl)-3-(2-(pyridin-2-yl)ethyl)pyrrolidin-1-yl)propan-2-yl)-2-methylpyridine] | < 10
12 | CCOC[C@@]1(CCc2ncccn2)CCN(C(C)(C)c2ccc(C)nc2)C1 [Compound 360, (S)-2-(2-(3-(ethoxymethyl)-1-(2-(6-methylpyridin-3-yl)propan-2-yl)pyrrolidin-3-yl)ethyl)pyrimidine] | < 10
13 | CCOC[C@@]1(CCc2ccnc(OC)c2)CCN(C(C)(C)c2ccc(C)nc2)C1.Cl [Compound 361, (S)-4-(2-(3-(ethoxymethyl)-1-(2-(6-methylpyridin-3-yl)propan-2-yl)pyrrolidin-3-yl)ethyl)-2-methoxypyridine HCl] | < 10
14 | CCOC[C@@]1(CCc2cc3c(s2)CCC3)CCN(C(C)(C)c2ccc(C)nc2)C1.Cl [Compound 362, (S)-5-(2-(3-(2-(5,6-dihydro-4H-cyclopenta[b]thiophen-2-yl)ethyl)-3-(ethoxy-methyl)pyrrolidin-1-yl)propan-2-yl)-2-methylpyridine HCl] | < 10
15 | CCOC[C@@]1(CCc2nccs2)CCN(C(C)(C)c2ccc(C)nc2)C1 [Compound 363, (S)-2-(2-(3-(ethoxymethyl)-1-(2-(6-methylpyridin-3-yl)propan-2-yl)pyrrolidin-3-yl)ethyl)thiazole] | < 10
16 | CCOC[C@@]1(CCc2ccc(F)cc2)CCN(C(C)(C)c2ccc(C)nc2)C1 [Compound 364, (S)-5-(2-(3-(ethoxymethyl)-3-(4-fluoro-phenethyl)pyrrolidin-1-yl)propan-2-yl)-2-methylpyridine] | < 10
17 | CCOC[C@@]1(CCc2ccc(F)s2)CCN(C(C)(C)c2ccc(C)nc2)C1 [Compound 365, (S)-5-(2-(3-(ethoxymethyl)-3-(2-(5-fluorothiophen-2-yl)ethyl)pyrrolidin-1-yl)propan-2-yl)-2-methylpyridine] | < 10
18 | CCOC[C@@]1(CCc2ccccc2)CCN(C(C)(C)c2ccc(C)nc2)C1 [Compound 366, (S)-5-(2-(3-(ethoxymethyl)-3-phenethylpyrrolidin-1-yl)propan-2-yl)-2-methylpyridine] | < 10
19 | CCOC[C@@]1(CCc2cc[nH]c(=O)c2)CCN(C(C)(C)c2ccc(C)nc2)C1.Cl [Compound 367, (S)-4-(2-(3-(ethoxymethyl)-1-(2-(6-methylpyridin-3-yl)propan-2-yl)pyrrolidin-3-yl)ethyl)pyridin-2(1H)-one HCl] | < 10

Row | Structure (SMILES) | ED50 [mg/kg]
20 | Cc1ccc(C(C)(C)N2CC[C@@](CO)(CCc3cc[nH]c(=O)c3)C2)cn1.Cl [Compound 368, (S)-4-(2-(3-(hydroxymethyl)-1-(2-(6-methylpyridin-3-yl)propan-2-yl)pyrrolidin-3-yl)ethyl)pyridin-2(1H)-one HCl] | < 10
21 | COc1cc(CC[C@]2(CO)CCN(C(C)(C)c3ccc(C)nc3)C2)ccn1.Cl [Compound 369, (S)-(3-(2-(2-methoxypyridin-4-yl)ethyl)-1-(2-(6-methylpyridin-3-yl)propan-2-yl)pyrrolidin-3-yl)methanol HCl] | < 10
22 | CCOC[C@@]1(CCc2ccc(OC)nc2)CCN(C(C)(C)c2ccc(C)nc2)C1.Cl [Compound 370, (S)-5-(2-(3-(ethoxymethyl)-1-(2-(6-methylpyridin-3-yl)propan-2-yl)pyrrolidin-3-yl)ethyl)-2-methoxypyridine HCl] | < 10
23 | CCOC[C@@]1(CCc2cccnc2)CCN(C(C)(C)c2ccc(C)nc2)C1 [Compound 371, (S)-5-(2-(3-(ethoxymethyl)-3-(2-(pyridin-3-yl)ethyl)pyrrolidin-1-yl)propan-2-yl)-2-methylpyridine] | < 10
24 | CCOC[C@@]1(CCc2ccc(F)cn2)CCN(C(C)(C)c2ccc(C)nc2)C1 [Compound 372, (S)-2-(2-(3-(ethoxymethyl)-1-(2-(6-methylpyridin-3-yl)propan-2-yl)pyrrolidin-3-yl)ethyl)-5-fluoropyridine] | < 10
25 | CCOC[C@@]1(CCc2ccc(C)s2)CCN(C(C)(C)c2ccc(C)nc2)C1 [Compound 373, (S)-5-(2-(3-(ethoxymethyl)-3-(2-(5-methylthiophen-2-yl)ethyl)pyrrolidin-1-yl)propan-2-yl)-2-methylpyridine] | < 10
26 | CCOCC1(CCc2cc(C)sc2C)CCN(C2(c3ccc(C)nc3)CC2)C1 (centres unmarked) [Compound 374, 5-(1-(3-(2-(2,5-dimethylthiophen-3-yl)ethyl)-3-(ethoxy-methyl)pyrrolidin-1-yl)cyclopropyl)-2-methylpyridine] | < 10
27 | CCOC[C@@]1(CCc2nccc(=O)[nH]2)CCN(C(C)(C)c2ccc(C)nc2)C1 [Compound 375, (S)-2-(2-(3-(ethoxymethyl)-1-(2-(6-methylpyridin-3-yl)propan-2-yl)pyrrolidin-3-yl)ethyl)pyrimidin-4(3H)-one] | < 10
28 | CCOC[C@@]1(CCc2ccc(=O)[nH]c2)CCN(C(C)(C)c2ccc(C)nc2)C1.Cl [Compound 376] | < 10
29 | CCOC[C@@]1(CCc2nccc(OC)n2)CCN(C(C)(C)c2ccc(C)nc2)C1.Cl [Compound 377, (S)-2-(2-(3-(ethoxymethyl)-1-(2-(6-methylpyridin-3-yl)propan-2-yl)pyrrolidin-3-yl)ethyl)-4-methoxypyrimidine HCl] | < 10
30 | CCOC[C@@]1(CCc2cccs2)CCN(C(C)c2cnn(C)c2C)C1 (stereo partly drawn) [Compound 378, 4-(1-((S)-3-(ethoxymethyl)-3-(2-(thiophen-2-yl)ethyl)pyrrolidin-1-yl)ethyl)-1,5-dimethyl-1H-pyrazole] | < 10
31 | CCOC[C@@]1(CCc2cccs2)CCN(C2(c3ccc(C)nc3)CC2)C1 [Compound 379, (S)-5-(1-(3-(ethoxymethyl)-3-(2-(thiophen-2-yl)ethyl)pyrrolidin-1-yl)cyclopropyl)-2-methylpyridine] | < 10
32 | CCOC[C@@]1(CCc2ccc(F)cn2)CCN(C(=O)c2ccc(C)nc2)C1 [Compound 380, (S)-(3-(ethoxymethyl)-3-(2-(5-fluoropyridin-2-yl)ethyl)pyrrolidin-1-yl)(6-methylpyridin-3-yl)methanone] | > 10
33 | COC[C@@]1(CCc2csc(C)c2)CCN(C(=O)c2ccc(C)nc2)C1 [Compound 381, (S)-(3-(methoxymethyl)-3-(2-(5-methylthiophen-3-yl)ethyl)pyrrolidin-1-yl)(6-methylpyridin-3-yl)methanone] | > 10
34 | CCOC[C@@]1(CCc2nncn2C)CCN(C(=O)c2ccc(C)nc2)C1 [Compound 382] | > 10
35 | COC[C@@]1(CCc2csc(C)c2)CCN(C(C)(C)c2ccc(C)nc2)C1 [Compound 383, (S)-5-(2-(3-(methoxymethyl)-3-(2-(5-methylthiophen-3-yl)ethyl)pyrrolidin-1-yl)propan-2-yl)-2-methylpyridine] | < 10
36 | CCOC[C@@]1(CCc2ccsc2)CCN(Cc2cnn(C)c2)C1.Cl [Compound 384, (S)-4-((3-(ethoxymethyl)-3-(2-(thiophen-3-yl)ethyl)pyrrolidin-1-yl)methyl)-1-methyl-1H-pyrazole HCl] | < 10
37 | CCOC[C@@]1(CCc2cscc2C)CCN(Cc2cccnc2)C1 [Compound 385, (S)-3-((3-(ethoxymethyl)-3-(2-(4-methylthiophen-3-yl)ethyl)pyrrolidin-1-yl)methyl)pyridine] | < 10
38 | CCOC[C@@]1(CCc2cccs2)CCN(C(C)(C)c2cnn(C)c2)C1.Cl [Compound 386, (S)-4-(2-(3-(ethoxymethyl)-3-(2-(thiophen-2-yl)ethyl)pyrrolidin-1-yl)propan-2-yl)-1-methyl-1H-pyrazole HCl] | < 10
